Source: the supplement of paper PMC13380429

Experiments:
Settings in all cases: 72 h
U2OS [1] = test: cell viability relative to DMSO; higher = less toxic
Calu-3 [2] = test: as above
Caco-2 [3] = test: as above
U2OS [4] = test: relative viability EC50 (midpoint between 100% and the lowest measured viability); higher = less toxic
Calu-3 [5] = test: as above
U2OS [6] = test: drug sensitivity score (DSS) for viability; higher = more toxic; extreme values may be limits of the assay
Calu-3 [7] = test: as above
Caco-2 [8] = test: as above
HepG2 [9] = test: cell viability relative to DMSO; higher = less toxic
HepG2 [10] = test: relative viability EC50 (midpoint between 100% and the lowest measured viability); higher = less toxic
Caco-2 [11] = test: as above
HepG2 [12] = test: drug sensitivity score (DSS) for viability; higher = more toxic; extreme values may be limits of the assay
Vero E6 [13] = test: cell viability relative to DMSO; higher = less toxic
Vero E6 [14] = test: relative viability EC50 (midpoint between 100% and the lowest measured viability); higher = less toxic
Vero E6 [15] = test: drug sensitivity score (DSS) for viability; higher = more toxic; extreme values may be limits of the assay

SMILES | cell viability (U2OS [1]; 1 nM) [%] | cell viability (U2OS [1]; 10 nM) [%] | cell viability (U2OS [1]; 100 nM) [%] | cell viability (U2OS [1]; 1000 nM) [%] | cell viability (U2OS [1]; 10000 nM) [%] | cell viability (Calu-3 [2]; 1 nM) [%] | cell viability (Calu-3 [2]; 10 nM) [%] | cell viability (Calu-3 [2]; 100 nM) [%] | cell viability (Calu-3 [2]; 1000 nM) [%] | cell viability (Calu-3 [2]; 10000 nM) [%] | cell viability (Caco-2 [3]; 1 nM) [%] | cell viability (Caco-2 [3]; 10 nM) [%] | cell viability (Caco-2 [3]; 100 nM) [%] | cell viability (Caco-2 [3]; 1000 nM) [%] | cell viability (Caco-2 [3]; 10000 nM) [%] | relative viability EC50 (U2OS [4]) [µM] | relative viability EC50 (Calu-3 [5]) [µM] | drug sensitivity score (U2OS [6]) | drug sensitivity score (Calu-3 [7]) | drug sensitivity score (Caco-2 [8]) | cell viability (HepG2 [9]; 1 nM) [%] | cell viability (HepG2 [9]; 10 nM) [%] | cell viability (HepG2 [9]; 100 nM) [%] | cell viability (HepG2 [9]; 1000 nM) [%] | cell viability (HepG2 [9]; 10000 nM) [%] | relative viability EC50 (HepG2 [10]) [µM] | relative viability EC50 (Caco-2 [11]) [µM] | drug sensitivity score (HepG2 [12]) | cell viability (Vero E6 [13]; 1 nM) [%] | cell viability (Vero E6 [13]; 10 nM) [%] | cell viability (Vero E6 [13]; 100 nM) [%] | cell viability (Vero E6 [13]; 1000 nM) [%] | cell viability (Vero E6 [13]; 10000 nM) [%] | relative viability EC50 (Vero E6 [14]) [µM] | drug sensitivity score (Vero E6 [15])
C/C=C/C[C@@H](C)C(=O)[C@H]1C(=O)N[C@@H](C(C)C)C(=O)N(C)CC(=O)N(C)[C@@H](CC(C)C)C(=O)N[C@@H](C(C)C)C(=O)N(C)[C@@H](CC(C)C)C(=O)N[C@@H](C)C(=O)N[C@H](C)C(=O)N(C)[C@@H](CC(C)C)C(=O)N(C)[C@@H](CC(C)C)C(=O)N(C)[C@@H](C(C)C)C(=O)N1C [valspodar] | 99.9 | 96.4 | 102 | 99.7 | 87.4 | 109 | 99.8 | 95.4 | 105 | 82.2 | 119 | 111 | 106 | 73.5 | 50.7 | > 10 | > 10 | 0.1 | 0.3 | 5.9 | – | – | – | – | – | – | – | – | – | – | – | – | – | – | –
c1nc(CC2CCNCC2)c[nH]1 [immepip] | 98.1 | 99.8 | 97.2 | 93.3 | 97.9 | 96.7 | 91.6 | 111 | 111 | 99.9 | 113 | 101 | 98.6 | 98.8 | 102 | > 10 | > 10 | 0 | 0 | 0 | 108 | 107 | 103 | 111 | 95.7 | > 10 | > 10 | 0 | – | – | – | – | – | – | –
C/C(=C\c1csc(C)n1)[C@@H]1C[C@@H]2O[C@]2(C)CCC[C@H](C)[C@H](O)[C@@H](C)C(=O)C(C)(C)[C@@H](O)CC(=O)N1 [ixabepilone] | 99.7 | 99.3 | 101 | 41.3 | 28 | 108 | 108 | 88.1 | 67.2 | 60.8 | 101 | 98.4 | 65.2 | 48.8 | 49.2 | 0.556 | – | 10.9 | 7.2 | 13.6 | 107 | 103 | 43.6 | 33.6 | 17.3 | 0.0721 | 0.0664 | 21.7 | 108 | 108 | 84.6 | 60.2 | 36.5 | 0.493 | 9.1
CC1CCc2cc(F)cc3c(=O)c(C(=O)O)cn1c23 (configuration not stated) [flumequine] | 98.1 | 98.3 | 102 | 97.9 | 104 | – | – | – | – | – | 91 | 75.1 | 96.5 | 112 | 121 | > 10 | – | 0 | – | 0 | 95.3 | 97.7 | 89.4 | 96.4 | 92.7 | > 10 | > 10 | 0 | 103 | 94.7 | 107 | 108 | 92.1 | > 10 | 0
COc1cc(-c2ncn(/C=C\C(=O)OC(C)C)n2)cc(C(F)(F)F)c1 [KPT-185] | 98.1 | 93.7 | 89.5 | 11.3 | 4.1 | 99.4 | 91.1 | 81.8 | 55.6 | 51.9 | 94.7 | 96.5 | 92.2 | 57 | 38.9 | 0.284 | – | 17.6 | 10 | 9 | 105 | 100 | 84.3 | 29.1 | 23.9 | 0.218 | 0.48 | 15.1 | 97.1 | 102 | 96.4 | 41.8 | 20 | 0.573 | 11.6
CN(C)CCn1nnnc1SCC1=C(C(=O)O)N2C(=O)[C@@H](NC(=O)Cc3csc(N)n3)[C@H]2SC1 [cefotiam] | 100 | 97.2 | 106 | 103 | 103 | – | – | – | – | – | 106 | 96.7 | 101 | 103 | 104 | > 10 | – | 0 | – | 0 | 102 | 94.5 | 99.7 | 96.5 | 104 | > 10 | > 10 | 0 | 99.3 | 95.5 | 96 | 88.1 | 104 | > 10 | 0
CCn1c(-c2nonc2N)nc2cnc(Oc3cccc(NC(=O)c4ccc(OCCN5CCOCC5)cc4)c3)cc21 | 97.5 | 98.6 | 91.4 | 78.5 | 62.1 | 97.9 | 123 | 144 | 131 | 125 | 94.9 | 98 | 94.9 | 97.8 | 67.7 | – | > 10 | 4.4 | 0 | 1.8 | 96.6 | 107 | 114 | 80.4 | 52.4 | – | – | 5.1 | 96.5 | 99.3 | 88.9 | 72.2 | 72.1 | – | 5.9
CCn1nc(C2CCN(C(=O)CCO)CC2)nc1-c1cnc(N)c(-c2nnc(C(C)(C)C)o2)n1 [AZD8835] | 102 | 97.5 | 99 | 85.2 | 70.5 | 102 | 96.3 | 99.1 | 81.4 | 41.8 | 94.1 | 93.6 | 91.3 | 86.6 | 64.3 | – | 1.35 | 2.8 | 5.9 | 3.2 | 101 | 101 | 95.1 | 78.7 | 64 | – | – | 4.1 | 96.9 | 97.9 | 93.7 | 96 | 70 | – | 2
COc1cc(/C=C(\C#N)C(N)=O)cc(CSc2nc3ccccc3s2)c1O [tyrphostin-AG-825] | 94.7 | 99.9 | 97.7 | 96 | 101 | – | – | – | – | – | 102 | 103 | 96.2 | 107 | 96.4 | > 10 | – | 0 | – | 0 | 105 | 92.4 | 103 | 97.3 | 108 | > 10 | > 10 | 0 | 92.6 | 97 | 94.7 | 93.8 | 105 | > 10 | 0
CN(c1ccccc1CNc1nc(Nc2ccc3c(c2)CC(=O)N3)ncc1C(F)(F)F)S(C)(=O)=O | 98.2 | 102 | 94.3 | 76.1 | 0.2 | – | – | – | – | – | 92.4 | 91.6 | 91.5 | 83.8 | 33.6 | 1.58 | – | 9.2 | – | 6 | 92.8 | 89.9 | 92.9 | 51.5 | 7.2 | 0.895 | 1.61 | 10.9 | 97 | 88.8 | 81.2 | 65.4 | 10.3 | 1.07 | 9.6
COCCOC(=O)C1=C(C)NC(C)=C(C(=O)OC/C=C/c2ccccc2)C1c1cccc([N+](=O)[O-])c1 (configuration not stated) [cilnidipine] | 99.1 | 103 | 98.8 | 104 | 85 | 99.2 | 105 | 93.3 | 105 | 95.2 | 91.1 | 94.3 | 94 | 92.9 | 67.7 | > 10 | > 10 | 0.1 | 0 | 2.5 | 118 | 104 | 114 | 104 | 91.8 | > 10 | – | 0 | – | – | – | – | – | – | –
CCOC(=O)c1ccc(NC2CCCCC2)c(N)c1 [ferrostatin-1] | 97.5 | 96.6 | 98.6 | 98.9 | 96.6 | – | – | – | – | – | 99.8 | 99.9 | 102 | 102 | 86.1 | > 10 | – | 0 | – | 0.1 | 94 | 108 | 97.8 | 97 | 113 | > 10 | > 10 | 0 | 97.6 | 101 | 94.3 | 95.1 | 100 | > 10 | 0
C[C@H](/C=C/[C@H](C)C(C)(C)O)[C@H]1CC[C@H]2/C(=C/C=C3C[C@@H](O)C[C@H](O)C3)CCC[C@]12C [paricalcitol] | 107 | 98.1 | 98.9 | 97.6 | 99.3 | – | – | – | – | – | 102 | 101 | 98.8 | 89.8 | 96.5 | > 10 | – | 0 | – | 0.1 | 101 | 99.2 | 99.3 | 95.6 | 82.1 | > 10 | > 10 | 0.9 | 96.6 | 97.3 | 95.4 | 103 | 101 | > 10 | 0
C[N+](C)(C)NCCC(=O)O [meldonium] | 102 | 99.1 | 104 | 97.7 | 101 | – | – | – | – | – | 96.1 | 101 | 102 | 92 | 102 | > 10 | – | 0 | – | 0 | 97.6 | 96.1 | 98.4 | 107 | 101 | > 10 | > 10 | 0 | 99.1 | 105 | 95.5 | 97 | 101 | > 10 | 0
C[C@]12CC/C(=N\OCCN)C[C@@H]1C(=O)C[C@@H]1[C@@H]2CC[C@]2(C)C(=O)CC[C@@H]12 [istaroxime] | 98.8 | 96.9 | 101 | 95.7 | 51.4 | 94.5 | 96.5 | 93 | 91.1 | 95.5 | 97.6 | 93.1 | 95.7 | 88.4 | 71.7 | – | > 10 | 3.2 | 0 | 2.1 | 110 | 102 | 88.6 | 99.7 | 87.2 | > 10 | – | 0 | 106 | 105 | 98.3 | 97.9 | 61.1 | – | 2.2
Cn1ncc(Cl)c1-c1cc(C(=O)N[C@H](CN)Cc2cccc(F)c2)sc1Cl | 97.2 | 95.6 | 97.9 | 94.1 | 89.2 | 98 | 97.6 | 104 | 89.7 | 63.6 | 83.6 | 85.6 | 95.3 | 79.7 | 71 | > 10 | – | 0 | 3.3 | 0 | 86.8 | 101 | 96.7 | 93.8 | 84.7 | > 10 | > 10 | 0 | 91.8 | 101 | 91.5 | 93.6 | 100 | > 10 | 0
